These results are taken from paper PMC4319890, “UFSRAT: Ultra-Fast Shape Recognition with Atom Types –The Discovery of Novel Bioactive Small Molecular Scaffolds for FKBP12 and 11βHSD1” (PLoS ONE, 2015).

For one test, the target named is T1, recombinant h11β-HSD1 (Homo sapiens, UniProt P28845).
T1 construct: made in house
The experiment in a line: Fluorescence assay, inhibition of 11β-HSD1 dehydrogenase activity. The test is classed as biochemical. Particulars: conversion of cortisol to cortisone; 1 μM 11β-HSD1, 200 μM cortisol, 500 μM NADP, pH 7.7, 25°C; read-out: Fluoresc. Ki^app. The method, then:
Testing for inhibition of 11β-HSD1 dehydrogenase activity. Candidate compounds were tested for inhibition of the conversion of cortisol to cortisone by recombinant h11β-HSD1. The dehydrogenation of cortisol is accompanied by the reduction of NADP^+ to NADPH; this was followed spectrophotometrically and scaled to a NADPH calibration curve. The excitation and emission wavelengths were 340 and 458 nm. (SpectraMax M5, Molecular Devices). The experimental conditions were 500 μM NADP, 1 μM 11β-HSD1, 200 μM cortisol 50 mM Tris, pH 7.7, 50 mM NaCl; 25°C. Reactions were carried out in sextuplicate. Ki ^app were derived from a fit of the rate of the reaction as a function of inhibitor concentration; Kaleidagraph, V4.0 [43]

In test [1] the target is T2, HEK-293 cells transfected with human 11β-HSD1 (Homo sapiens, UniProt P28845).
T2 construct: HEK-293 cells stably transfected with the full length human hsd11b1 gene; expressed in transfected cells; host or cells: HEK-293
T2 sequence (P28845 whole entry): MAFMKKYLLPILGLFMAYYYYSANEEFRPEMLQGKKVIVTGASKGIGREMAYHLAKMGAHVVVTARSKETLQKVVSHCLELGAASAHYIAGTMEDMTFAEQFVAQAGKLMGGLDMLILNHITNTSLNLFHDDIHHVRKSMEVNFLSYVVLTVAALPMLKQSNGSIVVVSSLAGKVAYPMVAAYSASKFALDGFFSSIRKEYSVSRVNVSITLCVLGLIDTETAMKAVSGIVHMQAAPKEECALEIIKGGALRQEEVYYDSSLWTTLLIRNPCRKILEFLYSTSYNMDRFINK
The experiment in a line: Scintillation proximity assay (SPA), inhibition of 11β-HSD1 reductase activity in cells. The format is cell-based. As to conditions: for IC50: conversion of cortisone to cortisol, 40 nM [3H]-cortisone, 1% DMSO. The method, then: Testing for inhibition of 11β-HSD1 reductase activity in cells. Candidate compounds were tested for inhibition of the conversion of cortisone to cortisol by 11β-HSD1 expressed in HEK-293 cells stably transfected with the full length human hsd11b1 gene as previously described. An established scintillation proximity assay (SPA) was carried out in a 96-well plate format, with appropriate controls. Experiments were set up in triplicate with 8 inhibitor concentration points per compound, spanning 3.5 orders of magnitude. Final solution conditions: 40 nM [^3H]-cortisone; 50 mM Tris pH 8.0, 50 mM NaCl; 1% DMSO. The anti-cortisol antibody was purchased from HyTest, Finland; radiometric quantification was carried out on a Perkin Elmer TopCount instrument. The percentage inhibition was determined relative to a non-inhibited control and the IC50 determined from a plot of percentage inhibition against compound concentration. Data were fitted global nonlinear regression using Kaleidagraph V4.0 (Synergy Software).
(Scintillation proximity formats need no separation of bound from free tracer.)

In test [2] the target is T3, Recombinant human FKBP12 (Homo sapiens, UniProt P62942).
T3 construct: made in house
T3 sequence (P62942 whole entry): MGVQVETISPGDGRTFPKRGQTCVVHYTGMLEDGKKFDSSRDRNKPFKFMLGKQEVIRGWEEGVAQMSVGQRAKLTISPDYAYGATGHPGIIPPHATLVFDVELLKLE
The experiment in a line: Thermal denaturation fluorescence (TDF) binding assay. The method, then:
Thermal denaturation fluorescence (TDF). A fluorescence based thermal denaturation assay was used to detect binding to FKBP12 essentially as described in the study of Lo [38]. Final conditions were: 50 mM ammonium acetate, pH 7.0; 10 μM FKBP12; 250 μM screening compound and 5x SYPRO orange dye (Invitrogen). […] Protein was melted over the temperature range 20 to 80°C; 0.5°C increment, 30s hold. Compounds were screened for fluorescence in the absence of protein; all samples were solvent matched and repeated in triplicate on 3 separate experiments. Apparent equilibrium dissociation constants (Kd ^app) for the interaction between the protein and ligands were calculated from the change in mid-point melting temperature of the protein (Tm) on addition of ligand and transformed to 25°C using a benchmark value for the enthalpy of ligand binding of -5 kcal∙mol^-1 [39].

Test [3] deals with T3, Recombinant human FKBP12. The experiment in a line: Electrospray ionization mass spectrometry (ESI-MS) binding assay. As to conditions: 50°C; 100 μM ligand, 5 μM FKBP12, 10% methanol, pH 6.8; read-out: ESI-MS Kd^app. How it is done:
Electrospray ionization mass spectrometry. Electrospray-ionization mass spectrometry (ESI-MS) was used to detect binding to FKBP12. Data was collected on a LCQ^TMDECA ion-trap instrument (ThermoQuest) run in the positive ion mode. The analyte was introduced by direct infusion and the following operating parameters were employed: nitrogen flow 100units, analyte flow 6 μl∙min^-1, capillary voltage 3.5 kV, cone voltage 25 V and capillary temperature 50°C. Spectrum were averaged over 300 scans (2s/ scan) and processed using the Bioworks Browser V 3.0 software package and ProMass 2.5 (ThermoScientific). The analyte solution consisted of 100 μM ligand, 5 μM FKBP12 in 10% methanol (v/v), 10 mM ammonium acetate, pH 6.8 incubated for 10 minutes at room temperature. Kd ^app for the interaction between the protein and ligand were calculated from the ratio of the intensity of the ion signal from free protein and protein in complex with ligand using the method of Tjernberg.

For a further test, the target named is FKBP12. Also on record: method as in PMID 18038971. Particulars: 27°C printed for Q2; cited from earlier work.
The next test relates to 11β-HSD1. Also on record: method as in PMID 16087724. Particulars: Figure 5 legend; cited from earlier work.
Where [4] appears, read: at the mid-point melting temperature Tm, 10 μM FKBP12, 250 μM compound, pH 7.0, read-out: TDF Kd^app at Tm.
Setting [5] is: value in brackets, transformed to 25°C using a benchmark enthalpy of ligand binding of -5 kcal/mol, read-out: TDF Kd^app (transformed 25°C) (converted).

T1 sequence (P28845 whole entry): as the sequence (P28845 whole entry) above

As to `COc1ccc(/C=C/C(=O)/C=C/c2ccc(OC)c(OC)c2)cc1OC` [Compound 5, (1E,4E)-1,5-bis(3,4-dimethoxyphenyl)penta-1,4-dien-3-one], the Ki at recombinant h11β-HSD1 is 142 ± 66 µM. Also, in test [1], the concentration for half-maximal inhibition (IC50) (in general, the concentration that gives 50% inhibition) is 11.3 ± 2.6 µM.
For `O=C(CNC(=O)c1ccccc1C(=O)O)c1ccccc1` [Compound 1, 2-(phenacylcarbamoyl)benzoic acid], the Kd was 548 ± 38 µM at Recombinant human FKBP12 [2] (setting [4]), 252 µM at Recombinant human FKBP12 [2] (setting [5]) and 313 ± 30 µM at Recombinant human FKBP12 [3].
“Dihydroxyphenyl)-2-oxoethyl]sulfanyl}-1H-tetrazol-1-yl)benzamide [Compound 6]”: the Ki at recombinant h11β-HSD1 stood at 47 ± 13 µM.
Turning to `CC(=O)Nc1ccccc1NC(=O)CCc1ccccc1` [Compound 4, N-(2-acetamidophenyl)-3-phenyl-propanamide], the Kd is 648 ± 88 µM on Recombinant human FKBP12 [2] (setting [4]), 303 µM on Recombinant human FKBP12 [2] (setting [5]) and 281 ± 42 µM at Recombinant human FKBP12 [3].
On to `Cc1ccc(S(=O)(=O)CC(=O)N2CCOCC2)cc1` [Compound Q3, 2-[(4-methylbenzene)-sulfonyl]-1-(morpholin-4-yl)ethan-1-one], for which the Kd on FKBP12 was 95 µM.
`Cc1ccc(SCC(=O)N2CCOCC2)cc1` [Compound Q2, 1-morpholino-2-(p-tolylsulfanyl)ethanone, reference compound]: the Kd on FKBP12 is 15 µM; at Recombinant human FKBP12 [2] (setting [4]), 28 ± 8 µM; on Recombinant human FKBP12 [2] (setting [5]), 6 µM; on Recombinant human FKBP12 [3] it was 197 ± 74 µM.
Consider `COc1ccc(C(=O)CSc2ccccn2)cc1` [Compound 8, 1-(4-methoxyphenyl)-2-(2-pyridylsulfanyl)ethanone], for which, on recombinant h11β-HSD1, the Ki came out at 26 ± 7 µM. In test [1], the IC50 is 0.067 ± 0.003 µM. Further, the “affinity IC50 in a cell based assay (in words)” value in test [1] (discussion) was “low nanomolar”.
For `O=C(NCC(O)c1ccccc1)c1cccc(Cl)c1` (centres unmarked) [Compound 3, 3-chloro-N-(2-hydroxy-2-phenyl-ethyl)benzamide], the figures for the Kd at Recombinant human FKBP12 [2] (setting [4]), at Recombinant human FKBP12 [2] (setting [5]) and at Recombinant human FKBP12 [3] were 568 ± 84 µM, 263 µM and 383 ± 52 µM, respectively.
As for `CC1(C)[C@@H](OC(=O)CCC(=O)O)CC[C@]2(C)[C@H]3C(=O)C=C4[C@@H]5C[C@@](C)(C(=O)O)CC[C@]5(C)CC[C@@]4(C)[C@]3(C)CC[C@@H]12` [Carbenoxolone], in the test with 11β-HSD1, the “inhibitor of 11β-HSD1 (potency, type not given)” value is 0.02 µM.
Take `CC(NC(=O)c1ccccc1)C(O)c1ccccc1` (centres unmarked) [Compound 2, N-(2-hydroxy-1-methyl-2-phenyl-ethyl)benzamide]: the Kd was 575 ± 70 µM at Recombinant human FKBP12 [2] (setting [4]), 266 µM at Recombinant human FKBP12 [2] (setting [5]) and 399 ± 45 µM on Recombinant human FKBP12 [3].
On to `COc1ccc2[nH]c(SCC(=O)c3ccc(O)c(O)c3)nc2c1` [Compound 7, 1-(3,4-dihydroxyphenyl)-2-[(6-methoxy-1H-benzimidazol-2-yl)sulfanyl]ethanone], for which the Ki at recombinant h11β-HSD1 was determined as 248 ± 73 µM. The IC50 in test [1] came to 7.9 ± 3 µM.
